Measurements reported in US7910621B2, “Small molecule antagonists of XIAP family proteins” (The Regents of the University of Michigan, priority 2004, dated 2011).
Ends that are not written are not given here. Peptide text beside a SMILES is read from it. * marks the point of attachment. 6FAM = O=C1OC2(c3ccc(O)cc3Oc3cc(O)ccc32)c2cc(C(=O)*)ccc21; Cbz = O=C(OCc1ccccc1)*; CH2F = FC*

Legend:
Jurkat-Vec cells = experiment: Cell growth assay, Jurkat-Vec; assay type: cell-based; settings: 2.5 μM, 72 hours
Experimental: (§1) FIG. 9 presents inhibition of cell growth by embelin in Jurkat-Vec and Jurkat-XIAP cells. The cell growth results are expressed as the percent of control and calculated from the percent of absorbance of treated wells versus that of vehicle control.
(§2) Human prostate cancer cell lines (PC-3, LNCap, CL-1, DU-145), and normal human fibroblast cell line WI-38 were obtained from the American Type Culture Collection (ATCC), were grown and maintained in Dulbecco's modified Eagle's medium (DMEM) containing 10% FBS (Invitrogen Corporation). Normal human prostate epithelial cells (PrEC) were obtained from Clonetics (Cambrex Inc., MD) and maintained in the special medium provided by the company. Jurkat T-cells stably transfected with either empty vector (Jurkat-Vec), or XIAP (Jurkat-XIAP) and were cultured in RPMI 1640 containing 10% fetal calf serum and 1 ug/ml puromycin. Cell cultures were maintained in a humidified incubator at 37° C. and 5% CO2.
Cell growth was determined by the MTT-based assay using Cell Proliferation Reagent WST-1 (Roche) according to the manufacturer's instruction. […] Absorbance was measured with a plate reader at […] with correction at […]. The results are expressed as the percent of absorbance of treated wells versus that of vehicle control.

Jurkat-XIAP cells = experiment: Cell growth assay, Jurkat-XIAP; assay type: cell-based
Experimental: as §1, §2
Cell growth was determined by the MTT-based assay using Cell Proliferation Reagent WST-1 (Roche) according to the manufacturer's instruction. The WST-1 assay is a colorimetric assay that measures the reduction of WST-1 by mitochondrial succinate dehydrogenase, which belongs to the respiratory chain of the mitochondria and is active only in viable cells. The WST-1 enters the cells and passes into the mitochondria, where it is reduced to a soluble, colored formazan product. The amount of formazan dye formed directly correlates to the number of metabolically active cells in the culture. Cells (5000 cells/well) were grown in medium with 10% FBS, and various concentrations of drugs were added to the cells in triplicate. […] Absorbance was measured with a plate reader at […] with correction at […]. The results are expressed as the percent of absorbance of treated wells versus that of vehicle control.

[1] = biological target: T1, BIR3 domain (residues 241-356) of human XIAP (Homo sapiens, UniProt P98170); experiment: XIAP binding assay, FP-based (Smac-Flu tracer); settings: Table 5
T1 construct: the BIR3 domain (residues 241-356) of human XIAP fused to His-tag; His-tag
Experimental: An established sensitive and quantitative in vitro fluorescence polarization-based (FP) binding assay for testing of the binding affinity of each new small molecule inhibitor of XIAP is used. […] The competing inhibitor is then added in microtiter wells. If the inhibitor does compete with Smac-Flu to bind to XIAP, it displaces the Smac-Flu peptide from the complex and cause a reduction in the polarization value. […] The change in the polarization value is used to determine the relative affinity of the inhibitor for XIAP. The XIAP used in this assay is the BIR3 domain (residues 241-356) of human XIAP fused to His-tag.
The FP assays were performed as follows: each 96-well contains 50 nM Smac-Flu peptide, 985 nM XIAP protein and 5 ul tested compounds in a final volume of 20 ul. Tested compounds were serially diluted in triplicate in concentration from 0 to 100 uM. For each assay negative controls containing XIAP and Smac-Flu (equivalent to 0% inhibition) and positive controls containing only free Smac-Flu peptide (equivalent to 100% inhibition) were included on each assay plate. The polarization values were measured after 3 hour incubation when the binding reached equilibrium. IC50 values were determined from the plot using nonlinear least-squares analysis. Curve fitting was performed using […] PRISM software. The Kis of competing compounds were derived from the measured IC50 and the Kd of Smac-Flu in the competition assays, using the Cheng-Prusoff equation. The fluorescence intensity of each tested inhibitor is closely monitored to exclude any false positives. Furthermore, compounds with high fluorescence intensity are tested using the NMR methods described below.

[2] = biological target: XIAP BIR3 protein of human XIAP (residues 241-356) (Homo sapiens, UniProt P98170); experiment: biochemical
caspase-9 in PC-3 cells = experiment: Activation of caspase-9 assay, PC-3; assay type: cell-based, human; settings: for blocking of active caspase-9 staining in Annexin V-FITC positive cells by pre-incubation: embelin-treated PC-3 cells pre-incubated with excessive inhibitor (20 μM LEHD-FMK, 5 min) before staining
Experimental: FIGS. 7A and 7B show the activation of caspase-9 by embelin in PC-3 prostate cancer cells and its selectivity in normal prostate epithelial cells. 1×10^6 PC-3 or PrEC cells per well in 6-well culture plates were treated with embelin for 48 hours. […] The cells were collected and stained of active caspase-9 by CaspGLOW Red Active Caspase-9 Staining Kit, and analyzed by flow cytometry in PI channel.
1×10^6 PC-3 cells per well in 6-well culture plates, were treated with various concentrations of embelin, or the same amount of solvent DMSO as vehicle control, for up to 48 hr. […] The cells were collected for staining of active caspase-9 by CaspGLOW Red Active Caspase-9 Staining Kit (BioVision, Inc., Mountain View, Calif.) according to the manufacturer's instructions, with modification. Briefly, to each tube containing 1×10^6 treated or control cells in 0.3 ml complete culture medium was added 1 μl of Red-LEHD-FMK and incubated for 0.5 hr at 37° C. incubator with 5% CO2. For double staining with Annexin V-FITC, the cells were spun down and resuspended in 100 μl Binding Buffer containing 1× Annexin V-FITC from the Annexin-V-FLUOS Kit (Roche) and incubated at room temperature for 10 min. The cells were then washed two times with Wash Buffer from the Active Caspase-9 Staining Kit. The cells were resuspended in 0.3 ml Binding Buffer and analyzed by flow cytometry, using PI channel for active caspase-9 and FITC channel for apoptosis.
The active caspase-9 and Annexin V double stained cells were also observed under Zeiss Laser Scanning Confocal Microscope LSM 510 Meta, using the fluorescent filter sets for rhodamine (Red) and FITC (green) channels. Early apoptotic cells show green fluorescence on the cell membrane while caspase-9 positive cells show bright red staining in the cytoplasm. Photos were taken at original magnification of 630×.

[3] = biological target: T2, human XIAP BIR3 protein (residues 241-356) (Homo sapiens, UniProt P98170); experiment: FP direct binding of fluorescent labeled Smac peptides to XIAP BIR3 (Kd titration)
T2 construct: The human XIAP BIR3 protein (residues 241-356) with a His tag; His tag
T2 sequence (P98170 241-356): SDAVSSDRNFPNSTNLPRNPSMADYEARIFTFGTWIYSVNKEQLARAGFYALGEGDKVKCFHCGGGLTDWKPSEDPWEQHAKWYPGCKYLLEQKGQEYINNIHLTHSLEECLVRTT

T1 sequence (P98170 241-356): as above
XIAP BIR3 protein of human XIAP (residues 241-356), sequence (P98170 241-356): as above

| Compound | IC50 [1] | other results |
| --- | --- | --- |
| COc1cc([C@@H]2c3cc4c(cc3[C@@H](O[C@@H]3O[C@@H]5CO[C@@H](C)O[C@H]5[C@H](O)[C@H]3O)[C@H]3COC(=O)[C@H]23)OCO4)cc(OC)c1O [etoposide] |  | cells killed in cell growth assay (Jurkat-Vec cells): 94.3%±0.6%; cells killed in cell growth assay (Jurkat-XIAP cells; 2.5 μM, 72 hours): 59%±2%; cells killed in cell growth assay (Jurkat-XIAP cells; 10 μM): 85%±0.1% |
| Cc1ccc(NC(=O)c2cccc(CCC3=C(O)C(=O)C=C(O)C3=O)c2)cc1 [CJ-305] | 1.62 ± 0.28 µM |  |
| Cc1cccc(NC(=O)c2cccc(CCC3=C(O)C(=O)C=C(O)C3=O)c2)c1 [CJ-322] | 4.89 ± 0.75 µM |  |
| ARPFAQK [SM7] |  | IC50 [2]: 0.57 ± 0.11 µM |
| Cc1ccccc1NC(=O)c1cccc(CCC2=C(O)C(=O)C=C(O)C2=O)c1 [CJ-323] | 11.6 ± 0.96 µM |  |
| ZDEVD-FMK [reference compound] |  | blocking of active caspase-9 staining in Annexin V-FITC positive cells by pre-incubation (caspase-9 in PC-3 cells): did not |
| O=C1C=C(O)C(=O)C(CCCCc2ccccc2)=C1 [EW-3] | 353 ± 79.4 µM |  |
| CC(C)c1ccc(CCc2cccc(CCC3=C(O)C(=O)C=C(O)C3=O)c2)cc1 [CJ-301] | 3.42 ± 0.31 µM |  |
| O=C1C=C(O)C(=O)C(CCc2cccc(CCc3ccc(Cl)cc3)c2)=C1O [EW-8] | 8.05 ± 1.48 µM |  |
| O=C1C=C(O)C(=O)C(CCc2cccc(CCc3cccc(Cl)c3)c2)=C1O [EW-7] | 9.18 ± 1.9 µM |  |
| CC(C)c1ccc(CCc2cccc(CCC3=C(O)C(=O)C=C(O)C3=O)c2)cc1 [CJ-294] | 3.76 ± 0.25 µM |  |
| CCCCc1cccc(CCC2=C(O)C(=O)C=C(O)C2=O)c1 [EW-4] | 27.6 ± 2.76 µM |  |
| O=C1C=C(O)C(=O)C(CCc2ccccc2)=C1O [CJ-331] | 89.1 ± 11.3 µM |  |
| O=C1C(O)=C(CCc2cccc(CCc3ccccc3)c2)C(=O)C(O)=C1CCc1ccccc1 [EW-6] | 14.3 ± 2.41 µM |  |
| C[C@H](N)C(=O)N[C@@H](CCCNC(=N)N)C(=O)N1CCC[C@H]1C(=O)N[C@@H](Cc1ccccc1)C(=O)N[C@@H](C)C(=O)N[C@@H](CCC(N)=O)C(=O)N[C@@H](CCCCNC(=O)c1ccc2c(c1)C1(OC2=O)c2ccc(O)cc2Oc2cc(O)ccc21)C(=O)O [SM7F, ARPFAQK-FAM] (H-ARPFAQK(6FAM)-OH; N-terminus and C-terminus assumed) |  | binding affinity compared with S9F [3]: higher binding affinity than S9F; ratio of the Kd values between labeled SM7F and S9F [3]: 7.3 times |
| Cbz-Val-Ala-Asp-CH2F [ZVAD peptide, reference compound] |  | blocking of Annexin V-FITC and active caspase-9 double staining (caspase-9 in PC-3 cells; PC-3 cells, 40 μM embelin, 48 hrs): blocked; inhibition of embelin-induced activation of caspase-9 (caspase-9 in PC-3 cells; pan-caspase inhibitor added 5 min before embelin): effectively inhibited |
| Cc1ccc(CNC(=O)c2cccc(CCC3=C(O)C(=O)C=C(O)C3=O)c2)cc1 [CJ-315] | 5.27 ± 1.43 µM |  |
| Cc1ccc(CCc2cccc(CCC3=C(O)C(=O)C=C(O)C3=O)c2)cc1 [CJ-274] | 2.14 ± 0.73 µM |  |
| LEHD-FMK [reference compound] |  | blocking of active caspase-9 staining in Annexin V-FITC positive cells by pre-incubation (caspase-9 in PC-3 cells): blocked |
| O=C1C=C(O)C(=O)C(CCc2cccc(C(=O)Nc3ccc(Cl)c(Cl)c3)c2)=C1O [CJ-327] | 12.3 ± 1.09 µM |  |
| CC(C)CCCCCC1=CC(=O)C=C(O)C1=O [EW-2] | 61.4 ± 9.29 µM |  |
| CCC1=C(O)C(=O)C=C(O)C1=O [EW-9] | 475 ± 122 µM |  |
